Experimental data taken from patent US8114583B2, “Switch-region: target and method for inhibition of bacterial RNA polymerase” (priority 2005, dated 2012).
Where “and” joins values, the source holds several entries; their conditions need not be identical. Equal entries are not always repeated. Where two headings read alike, the source gives them in different places.

Assays:
Mycobacterium smegmatis = settings: cited from earlier work
[1] = tested on: Corynebacterium mediolanum; settings: cited from earlier work
eukaryotic RNAP II = settings: cited from earlier work
[2] = tested on: Escherichia coli DH21tolC; assay: bacteriocidal activity; assay type: cell-based; settings: unpublished data
Micrococcus luteus = settings: cited from earlier work
Enterobacter cloacae = settings: cited from earlier work
B. megaterium = settings: cited from earlier work
Enterococcus faecium = settings: cited from earlier work
[3] = target: T. thermophilus RNAP holoenzyme (Thermus thermophilus, UniProt Q8RQE8+Q8RQE9); assay: inhibition of T. thermophilus RNAP holoenzyme; assay type: biochemical; settings: unpublished data; read-out: K, inhibition of T. thermophilus RNAP holoenzyme
[4] = target: wild-type Escherichia coli RNAP and [Arg345]β′-RNAP (Escherichia coli, UniProt P0A8T7+P0A8V2, K345R); settings: [Arg345]β′-RNAP versus wild-type RNAP; FIG. 7
Pseudomonas aeruginosa = settings: cited from earlier work
[5] = tested on: Escherichia coli with substitutions in RNAP β′ subunit (rpoC) or β subunit (rpoB); assay: MIC ratio (MIC mutant/MIC wild-type) of resistant rpoC/rpoB mutants; assay type: cell-based
Source text: To identify determinants for function of Myx, Applicant has performed random mutagenesis of genes encoding Escherichia coli RNAP β′ subunit (rpoC) and β subunit (rpoB), and has isolated and sequenced five independent Myx-resistant mutants (methods as described in Mukhopadhyay, et al. (2004) Mol. Cell. 14, 739-751).
To further define determinants for function of Myx, Applicant has performed saturation mutagenesis of genes encoding Escherichia coli RNAP β′ subunit (rpoC) and β subunit (rpoB), and has isolated and sequenced more than 100 independent Myx-resistant mutants (methods as described in Mukhopadhyay, et al. (2004) Mol. Cell. 14, 739-751; Tuske, et al. […] Cell 122, 541-552). Saturation mutagenesis was performed using a set of “doped” oligodeoxyribonucleotide primers targeting all codons for residues located within 30 Å of β′ residue 345 and β residues 1275 and 1292 in the three-dimensional structure of bacterial RNAP (primer sequences in Table 2). […]

mice = settings: at concentrations up to 100 mg/kg; cited from earlier work
Bacillus subtilis = settings: cited from earlier work
bacterial RNAP = bacterial RNAP (Escherichia coli, UniProt P0A8T7+P0A8V2); settings: read-out: Ki, inhibition of bacterial RNAP; cited from earlier work
Escherichia coli RNAP = Escherichia coli RNAP (Escherichia coli, UniProt P0A8T7+P0A8V2); assay type: biochemical
Source text: (A) DNA construct SEQ ID NO:133. (B) Data.
(A) DNA construct SEQ ID NO:134. (B) Data.
Applicant has performed transcription and DNA-binding experiments in order to define the basic mechanism of transcription inhibition by Myx (methods as in Mukhopadhyay, et al. (2004) Mol. Cell. 14, 739-751).
Applicant has performed DNA binding experiments with a series of subfragments of promoter DNA in order to map the interaction of RNAP with promoter DNA inhibited by Myx (methods as in Mukhopadhyay, et al. (2004) Mol. Cell. 14, 739-751). […] This DNA segment corresponds, precisely, to the DNA segment proposed to bind within the RNAP active-center cleft, and to be affected by clamp opening and closing, in structural models of transcription initiation complexes (see Ebright (2000) J. Mol. Biol. 304, 687-698; Murakami, et al. (2003) Curr. Opin. Stuct. Biol. 12, 89-97; Borukhov & Nudler (2003) Curr. Opin. Microbiol. 6, 93-100; Murakami, et al. (2002) Science 296, 1285-1290; Naryshkin, et al. (2000) Cell 101, 601-611; Mekler, et al. (2002) Cell 108, 599-614).

Staphylococcus aureus = settings: cited from earlier work
[6] = tested on: Escherichia coli DH21tolC; settings: cited from earlier work

CCC/C(C)=C/C=C(\C)C(=O)c1c(O)cc([C@H](C)CC/C=C/NC(=O)OC)oc1=O [Myx, myxopyronin]
MIC (Mycobacterium smegmatis): ≤ 10 µg/mL
MIC [1]: ≤ 10 µg/mL
inhibition of eukaryotic RNAP II (eukaryotic RNAP II): does not inhibit
bacteriocidal or not [2]: bacteriocidal
MIC (Micrococcus luteus): ≤ 10 µg/mL
MIC (Enterobacter cloacae): ≤ 10 µg/mL
MIC (B. megaterium): ≤ 10 µg/mL
MIC (Enterococcus faecium): ≤ 10 µg/mL
Ki [3]: 20000 nM
effect of substitution within the switch-region sequence on binding of Myx to RNAP [4]: reduces binding
MIC (Pseudomonas aeruginosa): ≤ 10 µg/mL
MIC ratio (MIC, mutant/MIC, wild-type) ([5]; rpoB 1255 Thr→Ile): 2
MIC ratio (MIC, mutant/MIC, wild-type) ([5]; rpoB 1275 Val→Met): >32
MIC ratio (MIC, mutant/MIC, wild-type) ([5]; rpoB 1275 Val→Phe): >32
MIC ratio (MIC, mutant/MIC, wild-type) ([5]; rpoB 1278 Leu→Val): 2
MIC ratio (MIC, mutant/MIC, wild-type) ([5]; rpoB 1279 Glu→Gly): 32
MIC ratio (MIC, mutant/MIC, wild-type) ([5]; rpoB 1279 Glu→Lys): >32
MIC ratio (MIC, mutant/MIC, wild-type) ([5]; rpoB 1283 Ala→Val): 2
MIC ratio (MIC, mutant/MIC, wild-type) ([5]; rpoB 1285 Tyr→Asp): 2
MIC ratio (MIC, mutant/MIC, wild-type) ([5]; rpoB 1291 Leu→Phe): 2
MIC ratio (MIC, mutant/MIC, wild-type) ([5]; rpoB 1298 Val→Leu): 4 and 2
MIC ratio (MIC, mutant/MIC, wild-type) ([5]; rpoB 1315 Met→Leu): 2
MIC ratio (MIC, mutant/MIC, wild-type) ([5]; rpoB 1317 Pro→Leu): 2
MIC ratio (MIC, mutant/MIC, wild-type) ([5]; rpoB 1320 Pro→Ala): 2
MIC ratio (MIC, mutant/MIC, wild-type) ([5]; rpoB 1322 Ser→Pro): 32
MIC ratio (MIC, mutant/MIC, wild-type) ([5]; rpoB 1322 Ser→Thr): 2
MIC ratio (MIC, mutant/MIC, wild-type) ([5]; rpoB 1322 Ser→Tyr): 2
MIC ratio (MIC, mutant/MIC, wild-type) ([5]; rpoB 1322 Ser→Val): 16
MIC ratio (MIC, mutant/MIC, wild-type) ([5]; rpoB 1325 Val→Leu): 2
MIC ratio (MIC, mutant/MIC, wild-type) ([5]; rpoB 1326 Leu→Trp): 1
MIC ratio (MIC, mutant/MIC, wild-type) ([5]; rpoC 345 Lys→Arg): >32
MIC ratio (MIC, mutant/MIC, wild-type) ([5]; rpoC 345 Lys→Asn): 32
MIC ratio (MIC, mutant/MIC, wild-type) ([5]; rpoC 345 Lys→Thr): 32
MIC ratio (MIC, mutant/MIC, wild-type) ([5]; rpoC 1346 Gly→Asp): 1
MIC ratio (MIC, mutant/MIC, wild-type) ([5]; rpoC 1351 Val→Phe): >32
MIC ratio (MIC, mutant/MIC, wild-type) ([5]; rpoC 1352 Ile→Asn): 2
MIC ratio (MIC, mutant/MIC, wild-type) ([5]; rpoC 1352 Ile→Ser): 2
MIC ratio (MIC, mutant/MIC, wild-type) ([5]; rpoC 1354 Gly→Cys): 2
acute toxicity in mice (mice): no acute toxicity
MIC (Bacillus subtilis): ≤ 10 µg/mL
Ki (bacterial RNAP): 1000 nM
interaction of RNAP with promoter DNA (Escherichia coli RNAP): preventing stable interaction
interaction of RNAP with promoter DNA segment comprising positions −40 to −12 (Escherichia coli RNAP): does not inhibit
interaction of RNAP with segment of promoter DNA comprising positions −11 to +15 (Escherichia coli RNAP): inhibits

C/C(=C\Cc1ccccc1)CCC(=O)C[C@H]1C[C@H](O)C/C(C)=C/C/C=C/C/C(CC(=O)O)=C\C(=O)O1 [Rip, ripostatin]
inhibition of eukaryotic RNAP II (eukaryotic RNAP II): does not inhibit
MIC (Staphylococcus aureus): ≤ 1 µg/mL
bacteriocidal or not [2]: bacteriocidal
MIC [6]: ≤ 1 µg/mL
MIC ratio (MIC, mutant/MIC, wild-type) ([5]; rpoB 1255 Thr→Ile): 4
MIC ratio (MIC, mutant/MIC, wild-type) ([5]; rpoB 1275 Val→Met): 8
MIC ratio (MIC, mutant/MIC, wild-type) ([5]; rpoB 1275 Val→Phe): >16
MIC ratio (MIC, mutant/MIC, wild-type) ([5]; rpoB 1278 Leu→Val): >16
MIC ratio (MIC, mutant/MIC, wild-type) ([5]; rpoB 1279 Glu→Gly): >16
MIC ratio (MIC, mutant/MIC, wild-type) ([5]; rpoB 1279 Glu→Lys): 4
MIC ratio (MIC, mutant/MIC, wild-type) ([5]; rpoB 1283 Ala→Val): 4
MIC ratio (MIC, mutant/MIC, wild-type) ([5]; rpoB 1285 Tyr→Asp): 4
MIC ratio (MIC, mutant/MIC, wild-type) ([5]; rpoB 1291 Leu→Phe): 4
MIC ratio (MIC, mutant/MIC, wild-type) ([5]; rpoB 1298 Val→Leu): 4
MIC ratio (MIC, mutant/MIC, wild-type) ([5]; rpoB 1315 Met→Leu): 4
MIC ratio (MIC, mutant/MIC, wild-type) ([5]; rpoB 1317 Pro→Leu): 2
MIC ratio (MIC, mutant/MIC, wild-type) ([5]; rpoB 1320 Pro→Ala): 4
MIC ratio (MIC, mutant/MIC, wild-type) ([5]; rpoB 1322 Ser→Pro): >16
MIC ratio (MIC, mutant/MIC, wild-type) ([5]; rpoB 1322 Ser→Thr): 4
MIC ratio (MIC, mutant/MIC, wild-type) ([5]; rpoB 1322 Ser→Tyr): 2
MIC ratio (MIC, mutant/MIC, wild-type) ([5]; rpoB 1322 Ser→Val): >16
MIC ratio (MIC, mutant/MIC, wild-type) ([5]; rpoB 1325 Val→Leu): 4
MIC ratio (MIC, mutant/MIC, wild-type) ([5]; rpoB 1326 Leu→Trp): >16
MIC ratio (MIC, mutant/MIC, wild-type) ([5]; rpoC 345 Lys→Arg): >16
MIC ratio (MIC, mutant/MIC, wild-type) ([5]; rpoC 345 Lys→Asn): 8
MIC ratio (MIC, mutant/MIC, wild-type) ([5]; rpoC 345 Lys→Thr): >16
MIC ratio (MIC, mutant/MIC, wild-type) ([5]; rpoC 1346 Gly→Asp): 4
MIC ratio (MIC, mutant/MIC, wild-type) ([5]; rpoC 1351 Val→Phe): >16
MIC ratio (MIC, mutant/MIC, wild-type) ([5]; rpoC 1352 Ile→Asn): >16
MIC ratio (MIC, mutant/MIC, wild-type) ([5]; rpoC 1352 Ile→Ser): >16
MIC ratio (MIC, mutant/MIC, wild-type) ([5]; rpoC 1354 Gly→Cys): 4
Ki (bacterial RNAP): 300 nM
effects on transcription, promoter binding, and promoter-subfragment binding (Escherichia coli RNAP; results not shown): same mechanism as Myx

C/C=C/C/C=C(\C)C(O)CC/C(C)=C/C=C(\C)C(=O)c1c(O)cc([C@H](C)CC/C=C/NC(=O)OC)oc1=O (some centres unmarked) [Cor, corallopyronin]
MIC [1]: ≤ 10 µg/mL
inhibition of eukaryotic RNAP II (eukaryotic RNAP II): does not inhibit
bacteriocidal or not [2]: bacteriocidal
MIC (Micrococcus luteus): ≤ 10 µg/mL
MIC (B. megaterium): ≤ 10 µg/mL
MIC [6]: ≤ 10 µg/mL
MIC ratio (MIC, mutant/MIC, wild-type) ([5]; rpoB 1255 Thr→Ile): 4
MIC ratio (MIC, mutant/MIC, wild-type) ([5]; rpoB 1275 Val→Met): >8
MIC ratio (MIC, mutant/MIC, wild-type) ([5]; rpoB 1275 Val→Phe): >8
MIC ratio (MIC, mutant/MIC, wild-type) ([5]; rpoB 1278 Leu→Val): 4
MIC ratio (MIC, mutant/MIC, wild-type) ([5]; rpoB 1279 Glu→Gly): 4
MIC ratio (MIC, mutant/MIC, wild-type) ([5]; rpoB 1279 Glu→Lys): 8
MIC ratio (MIC, mutant/MIC, wild-type) ([5]; rpoB 1283 Ala→Val): 4
MIC ratio (MIC, mutant/MIC, wild-type) ([5]; rpoB 1285 Tyr→Asp): 1
MIC ratio (MIC, mutant/MIC, wild-type) ([5]; rpoB 1291 Leu→Phe): 1
MIC ratio (MIC, mutant/MIC, wild-type) ([5]; rpoB 1298 Val→Leu): 2
MIC ratio (MIC, mutant/MIC, wild-type) ([5]; rpoB 1315 Met→Leu): 2
MIC ratio (MIC, mutant/MIC, wild-type) ([5]; rpoB 1317 Pro→Leu): 2
MIC ratio (MIC, mutant/MIC, wild-type) ([5]; rpoB 1320 Pro→Ala): 4
MIC ratio (MIC, mutant/MIC, wild-type) ([5]; rpoB 1322 Ser→Pro): 4
MIC ratio (MIC, mutant/MIC, wild-type) ([5]; rpoB 1322 Ser→Thr): 4
MIC ratio (MIC, mutant/MIC, wild-type) ([5]; rpoB 1322 Ser→Tyr): 4
MIC ratio (MIC, mutant/MIC, wild-type) ([5]; rpoB 1322 Ser→Val): 8
MIC ratio (MIC, mutant/MIC, wild-type) ([5]; rpoB 1325 Val→Leu): 4
MIC ratio (MIC, mutant/MIC, wild-type) ([5]; rpoB 1326 Leu→Trp): >8
MIC ratio (MIC, mutant/MIC, wild-type) ([5]; rpoC 345 Lys→Arg): >8
MIC ratio (MIC, mutant/MIC, wild-type) ([5]; rpoC 345 Lys→Asn): 8
MIC ratio (MIC, mutant/MIC, wild-type) ([5]; rpoC 345 Lys→Thr): 8
MIC ratio (MIC, mutant/MIC, wild-type) ([5]; rpoC 1346 Gly→Asp): 4
MIC ratio (MIC, mutant/MIC, wild-type) ([5]; rpoC 1351 Val→Phe): >8
MIC ratio (MIC, mutant/MIC, wild-type) ([5]; rpoC 1352 Ile→Asn): 4
MIC ratio (MIC, mutant/MIC, wild-type) ([5]; rpoC 1352 Ile→Ser): 4
MIC ratio (MIC, mutant/MIC, wild-type) ([5]; rpoC 1354 Gly→Cys): 2
MIC (Bacillus subtilis): ≤ 10 µg/mL
Ki (bacterial RNAP): 4000 nM
effects on transcription, promoter binding, and promoter-subfragment binding (Escherichia coli RNAP): same mechanism as Myx
